Molecular target: GAT1 (Homo sapiens, UniProt P30531)
Type: cell-based

Sequence of GAT1 (P30531 whole entry): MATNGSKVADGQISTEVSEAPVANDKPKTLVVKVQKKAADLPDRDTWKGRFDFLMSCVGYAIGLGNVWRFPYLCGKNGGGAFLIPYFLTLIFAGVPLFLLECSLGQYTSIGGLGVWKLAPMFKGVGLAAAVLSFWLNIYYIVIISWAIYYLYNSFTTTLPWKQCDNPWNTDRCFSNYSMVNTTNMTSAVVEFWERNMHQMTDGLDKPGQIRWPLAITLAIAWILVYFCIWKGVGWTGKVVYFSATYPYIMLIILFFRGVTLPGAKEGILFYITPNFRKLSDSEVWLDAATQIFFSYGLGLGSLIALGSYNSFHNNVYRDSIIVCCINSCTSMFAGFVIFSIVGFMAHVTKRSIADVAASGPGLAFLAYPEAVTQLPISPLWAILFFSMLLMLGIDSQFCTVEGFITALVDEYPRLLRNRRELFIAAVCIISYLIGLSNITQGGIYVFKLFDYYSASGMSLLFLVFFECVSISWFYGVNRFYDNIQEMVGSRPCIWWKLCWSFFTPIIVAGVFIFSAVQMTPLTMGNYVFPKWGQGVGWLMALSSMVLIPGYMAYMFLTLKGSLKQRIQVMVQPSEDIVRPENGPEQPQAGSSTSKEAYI

Q: `O=C(O)C1=CCCN(CCON=C(c2ccccc2)c2ccccc2)C1` [NO-711, 1-[2-[[(diphenylmethylene)imino]oxy]ethyl]-1,2,5,6-tetrahydro-3-pyridinecarboxylic acid] was tested. Which Ki did it give?
A: 78 ± 12 nM

Reference: article PMC2764797 (Neurochemistry international, 2009)
